Assay results reported in patent US20250312365A1, “METHODS FOR INHIBITION OF SQUAMOUS CARCINOMA CELLS USING CERAMIDE MODULATORS” (The Trustees of Indiana University, priority 2024, published 2025).
Entries after “also recorded” stand apart in the source; their conditions may differ.

What was measured:
ACER2 = ACER2 mRNA expression in OECM1 cells; format: cell-based, human; details: 1 μg/ml, compared to sham control
Source text: (§1) Exemplary ceramidase genes, the expression of which can be measured to determine upregulation, include but are not limited to ASAH1, ACER2, and ACER3. A determination of ceramidase gene expression can be made according to methods available to one of skill in the art. For example, Yamada et al., J Cell Mol Med. 2023 May;27(9):1290-1295 and Kyriakou et al., Int. J. Mol. Sci. 2020, 21(5):1607 describes measuring the mRNA levels of ceramidases by RNA extraction and RT-PCR.
(§2) To test this hypothesis, it was first determined whether artificially elevated intracellular concentration of ceramide species affect the expression of acid/ASAH1, neutral/ASAH2, and alkaline1-3/ACER1-3 ceramidases in oral squamous cell carcinoma cells using C6-ceramide. Applicant previously reported that C6-ceramide serves as a positive control for PGDHC-mediated inflammation (Kanzaki et al., Biochim Biophys Acta Mol Cell Biol Lipids. 2017 May;1862(5):452-462) and promotes the intracellular accumulation of ceramide in cancer cells. See, e.g., Zhang et al., Front Plant Sci. 2020 Feb. 26:11:145, Zhai et al., Biochem Biophys Res Commun. 2015 December;468(1-2):274-80, Wilhelm et al., Cancers (Basel). 2021 Jan. 13;13(2):270, and Chapman et al., Biochem Pharmacol. 2010 Aug. 1;80(3):308-15.
(§3) Next, the effect of PGDHC on ceramidase gene expression was determined. OECM1 and SCC4 cells were exposed to 0.1 or 1 μg/ml of PGDHC. The mRNA levels of ceramidases were then measured following PGDHC exposure. PGDHC inhibited the expression of ASAH1 and ACER2 mRNAs in OECM1 (FIG. 8). […] See, e.g., Vijayan et al., J Adv Res. 2023 Dec. 21:S2090-1232(23)00403-4, Doan et al., Oncotarget. 2017 Nov. 7;8(68):112662-112674., Lai et al., Sci Rep. 2021 May 27;11(1):11221, Liu et al., Cancer Sci. 2020 July;111(7):2259-2274., and Liu et al., Front Genet. 2023 Mar. 1:14:1148437.
(§4) To elucidate the effects of C16:0 and dh-C16:0 on oral squamous cell carcinoma, the ability of exogenous C16:0 and dh-C16:0 to modulate proliferation and ceramidase expression in OECM1 cells was determined. […] In contrast, no effect of C16:0 on ASAH1 and ACER2 mRNA expressions.

ACER3 = ACER3 mRNA expression in OECM1 cells; format: cell-based, human; details: 1 μg/ml, compared to sham control
Source text: as §1
as §2, with “13;13(2):270, and Chapman et al., Biochem Pharmacol. 2010 Aug. 1;80(3):308-15.” left out
To elucidate the effects of C16:0 and dh-C16:0 on oral squamous cell carcinoma, the ability of exogenous C16:0 and dh-C16:0 to modulate proliferation and ceramidase expression in OECM1 cells was determined. […]

[1] = system: human gingival squamous carcinoma cells (OECM1); experiment: Cell viability/proliferation assay (WST-1) in OECM1 cells; format: cell-based; details: for OECM1 viability / proliferation: 0.1, 1, 2 and 5 μg/ml, normalized to control
Source text: (§5) In specific examples, colorimetric assays can be used to assess cellular viability and proliferation of cell cultures, such as MTT, WST-1, and resazurin assays. See, e.g., Präbst et al., Methods Mol Biol. 2017:1601:1-17.
(§6) Various cell lines were exposed to PGDHC, including human gingival squamous carcinoma cells (OECM1), tongue squamous carcinoma cells (SCC4, SCC9), and healthy human gingival epithelial control cells (OBA9) in vitro.
as §4
(§7) LCL521 is a dose-dependent acid ceramidase inhibitor. Comparison of the concentration-dependent effects of an acid ceramidase inhibitor, LCL521 (MedChemExpress®), and the bacterial-isolated a15:0-15:0PE phospholipid on the viability of healthy human epithelial, OBA9, and oral squamous cancer cell lines, OECM1 and SCC9, in vitro was evaluated. […] (FIG. 15A). […] (FIG. 15B).

ASAH1 [2] = experiment: ASAH1 (acid ceramidase) mRNA expression in OECM1 cells; format: cell-based, human; details: for expression of ASAH1 in OECM1 cells: 1 μg/ml, compared to sham control
Source text: as §1, §2, §3, §4
(§8) We evaluated the effect of a15:0-i15:0 phosphoethanolamine phospholipid (FIG. 1D), isolated from the gut bacteria Akkermansia muciniphila on OSCC cells.

[3] = system: healthy human gingival epithelial control cells (OBA9); experiment: Cell viability/proliferation assay (WST-1) in healthy OBA9 cells; format: cell-based
Source text: as §5, §6, §7

[4] = system: tongue squamous carcinoma cells (SCC9); experiment: Cell viability/proliferation assay (WST-1) in SCC9 cells; format: cell-based, human
Source text: as §5, §6, §7

ASAH1 [5] = experiment: ASAH1 mRNA expression in SCC9 cells; format: cell-based, human; details: different concentrations of a15:0-i15:0PE
Source text: as §8

SCC9 cells = experiment: Untargeted metabolomic pathway analysis (LC/MS) in SCC9 cells; format: cell-based, human; details: 1 μg/ml for 6 h
Source text: The plots in FIGS. 16A and 16B display the enriched pathways identified in the analysis, with their corresponding significance levels represented on the x-axis. The significance threshold (p<0.05) is denoted by the dashed line. […] Additionally, the color of the dots represents the enrichment, which indicates the extent to which the metabolites in the pathway were clustered amongst the compounds with the most positive fold-changes (positive enrichments), the most negative fold-changes (negative enrichments), or uniformly distributed across high and low fold-change compounds (enrichment values near 0.0). […] Polar and lipid metabolites were analyzed with hydrophilic interaction chromatography (HILIC/MS) and liquid chromatography (LC/MS), respectively. Mass spectrometry analysis was completed with a mass range of 67-1500 Da with 1 scan/sec and a mass resolution of 120,000 in both positive and negative ionization mode. The MS/MS mass-spectrometry data were acquired in a data-dependent iterative fashion with a 1.3 m/z isolation window. Based upon this metabolomic analysis, phosphoglycerol dihydroceramide (PGDHC) isolated from Porphyromonas gingivalis inhibits metabolomic pathways essential for cell survival in oral squamous cell carcinoma cells (OSCC). […]
SCC9 were exposed to a15:0-i15:0PE (1 μg/ml) for 6 h in vitro. […] The significance threshold (p<0.05) is denoted by the grey dashed line. […] Additionally, the color of the dots represents the enrichment, which indicates the extent to which the metabolites in the pathway were clustered amongst the compounds with the most positive fold-changes (positive enrichments), the most negative fold-changes (negative enrichments), or uniformly distributed across high and low fold-change compounds (enrichment values near 0.0).

acid ceramidase = experiment: Acid ceramidase level by confocal microscopy in SCC9 cells; format: cell-based, human
Source text: as §8

[6] = system: ceramide and dihydroceramide in OECM1 cells; details: Yamada et al. 2023; cited from earlier work
[7] = system: human gingival squamous carcinoma cells (OECM1); details: Yamada et al. 2023; cited from earlier work
ASAH1 [8] = details: Yamada et al. 2023; cited from earlier work
[9] = at concentrations lower than 1 μg/mL

CCCCCCCCCCCCC/C=C/[C@@H](O)[C@H](CO)NC(=O)CCCCC [C6-ceramide]
expression of ACER2 in OECM1 cells (ACER2): inhibited expression | expression of ACER3 in OECM1 cells (ACER3): inhibited expression | OECM1 viability / proliferation [1]: inhibited OECM1 viability in a concentration-dependent manner | expression of ASAH1 in OECM1 cells (ASAH1 [2]): inhibited expression

CCCCCCCCCCCCC/C=C/[C@@H](O)[C@H](CO)NC(=O)CCCCCCCCCCCCCCC [C16:0, C16:0 ceramide]
expression of ACER2 in OECM1 cells (ACER2): no effect | expression of ASAH1 in OECM1 cells (ASAH1 [2]): no effect

CCCCCCCCCCCCCC(=O)N[C@H](COC(=O)CN(C)C)[C@H](OC(=O)CN(C)C)c1ccc([N+](=O)[O-])cc1 [LCL521, reference compound]
inhibition of viability of OBA9 ([3]; 10 μM): over 50% | inhibition of viability of OECM1 ([1]; 10 μM): 20% | inhibition of viability of SCC9 ([4]; 10 μM): 20%

CC[C@H](C)CCCCCCCCCCC(=O)OC[C@H](COP(=O)(O)OCCN)OC(=O)CCCCCCCCCCCC(C)C [a15:0-15:0PE, 1-(12S-methylmyristoyl)-2-(13-methylmyristoyl)-sn-glycero-3-phosphoethanolamine]
healthy OBA9 cell viability ([3]; concentrations of 0.1, 1.0 and 2.0 μM (FIG. 15B)): No significant effect | expression patterns of ASAH1 mRNA in SCC9 (ASAH1 [5]): dose-dependent decrease in expression | viability of OECM1 cells [1, 9]: significantly inhibited | viability of SCC9 cells [4, 9]: significantly inhibited | expression patterns of ASAH1 mRNA in OECM1 (ASAH1 [2]; different concentrations of a15:0-i15:0PE): dose-dependent decrease in expression | amino fatty acid metabolism in SCC9 cells (SCC9 cells): inhibits | arginine and proline metabolism in SCC9 cells (SCC9 cells): inhibits | vitamin B6 metabolism in SCC9 cells (SCC9 cells): inhibits | amino fatty acid metabolism in SCC9 cells (SCC9 cells; listed as a15:0-i15:0PE): diminished accumulation | arginine and proline metabolism in SCC9 cells (SCC9 cells; listed as a15:0-i15:0PE): diminished accumulation | vitamin B6 metabolism in SCC9 cells (SCC9 cells; listed as a15:0-i15:0PE): diminished accumulation | levels of acid ceramidase in SCC9 cells (confocal, corrected total cell fluorescence) (acid ceramidase): decreased expression

CCCCCCCCCCCCCCCC(=O)N[C@@H](CO)[C@H](O)CCCCCCCCCCCCCCC [dh-C16:0, Dihydroceramide C16:0]
expression of ACER2 in OECM1 cells (ACER2): dramatically inhibits | expression of ACER3 in OECM1 cells (ACER3): dramatically inhibits | OECM1 viability / proliferation [1]: significantly inhibited OECM1 cells proliferation in a concentration-dependent manner | expression of ASAH1 in OECM1 cells (ASAH1 [2]): dramatically inhibits

phosphoethanolamine dihydroceramide [PEDHC]
accumulation of antiproliferative ceramides in OECM1 cells [6]: elevated accumulation | proliferation of OECM1 cells [7]: inhibited the proliferation | ASAH1 (acid ceramidase) expression in OECM1 cells (ASAH1 [8]): inhibition; also recorded: downregulation
